Data as given in patent US7470664.
Read-outs that look alike come from different tables or passages of the source.

Conditions: 19-membered ring

Structure (SMILES)	ring closure, isolated yield (from COC(=O)[C@@H]1C[C@@H](OC(=O)N2Cc3cccc(C#CCCCOC(=O)N[C@H](C(=O)O)C(C)(C)C)c3C2)C[NH2+]1, amide bond, HATU/Et3N/DMAP, DCM, 42.0 mM, 25.0 °C, 2 steps)	ring closure, isolated yield (from C=CCCCOC(=O)N[C@@H](CCCC)C(=O)N1C[C@H](OC(=O)N2Cc3cccc(C=C)c3C2)C[C@H]1C(=O)OC, rcm bond, Zhan catalyst I (RC-301), DCE, 5.5 mM, 100.0 °C)
COC(=O)[C@@H]1C[C@@H]2CN1C(=O)[C@H](C(C)(C)C)NC(=O)OCCCC#Cc1cccc3c1CN(C3)C(=O)O2	43%	–
CCCC[C@@H]1NC(=O)OCCCC=Cc2cccc3c2CN(C3)C(=O)O[C@@H]2C[C@@H](C(=O)OC)N(C2)C1=O	–	79%
